Patent US20250340591A1, “COMPOSITION FOR PREVENTING OR TREATING INFLAMMATORY BOWEL DISEASE CONTAINING NOVEL COMPOUND” (ANYGEN CO., LTD., priority 2021, published 2025)

Legend:
AMPK = experiment: phosphorylation of AMPK in HT-29 cells, Western blot; assay type: cell-based
Excerpt: It is known that tight junctions are mediated by a signaling mechanism due to phosphorylation of AMPK protein. Therefore, in order to confirm whether AMPK is involved in the increase in tight junctions by HKFY-34, the expression of p-AMPK in the cells was confirmed using HT-29 cells (FIGS. 79 and 80).
In addition, when treated with HKFY-34 after pretreatment with an AMPK inhibitor (STO-609), it was confirmed that the expression level of p-AMPK, which was increased due to HKFY-34 treatment, was decreased (FIG. 80).

[1] = system: C57BL6/J mice with ulcerative colitis induced by DSS; experiment: DSS-induced ulcerative colitis animal model; assay type: in vivo
Experimental: Specifically, an animal model of ulcerative colitis among inflammatory bowel diseases was prepared by feeding C57BL6/J mice (Central Lab. Animal Inc.) with water containing 3% DSS (dextran sodium sulfate).
The untreated (vehicle) mice were set as a control group, the mice fed with only DSS (vehicle+3% DSS) were set as a negative control group, and the mice administered intraperitoneally with SASP (sulfasalazine) at 50 mg/kg after treatment with DSS (SASP 50 mg/kg+3% DSS) were set as a positive control group. As a test group, the mice were intraperitoneally administered with HKFY-34 at 0.1, 1, and 10 mg/kg, respectively. HKFY-34 was administered once a day for 5 days, and during the administration period, the stool condition and body weight loss were measured in the subjects. […]

HT-29 cells = experiment: LPS-induced inflammation cell model of inflammatory bowel disease (HT-29), qPCR and ELISA; assay type: cell-based; conditions: HT-29, 1 μg/mL LPS, vs LPS alone
Experimental: In order to confirm the effect of HKFY-34 on anti-inflammatory action, which is one of the gastrointestinal tract protective function (barrier function) by GPR39, the anti-inflammatory activity of HKFY-34 was evaluated in a cell model of inflammatory bowel disease (IBD).
Specifically, the HT-29 cells were treated with 1 μg/mL LPS to induce inflammation and prepare an inflammatory bowel disease model, and were treated with HKFY-34 at different concentrations. Thereafter, the expression levels of mRNA (FIG. 81) and protein (FIG. 82) of inflammation factors for ulcerative colitis were measured through qPCR and ELISA.

ghrelin receptor (GHSR) = target: T1, ghrelin receptor (GHSR) (Homo sapiens, UniProt Q92847); experiment: luciferase assay system, ghrelin receptor family selectivity; assay type: cell-based; conditions: compared with intrinsic ligand, FIG. 74
T1 construct: expressed in transfected cells
T1 sequence (Q92847 whole entry, species assumed): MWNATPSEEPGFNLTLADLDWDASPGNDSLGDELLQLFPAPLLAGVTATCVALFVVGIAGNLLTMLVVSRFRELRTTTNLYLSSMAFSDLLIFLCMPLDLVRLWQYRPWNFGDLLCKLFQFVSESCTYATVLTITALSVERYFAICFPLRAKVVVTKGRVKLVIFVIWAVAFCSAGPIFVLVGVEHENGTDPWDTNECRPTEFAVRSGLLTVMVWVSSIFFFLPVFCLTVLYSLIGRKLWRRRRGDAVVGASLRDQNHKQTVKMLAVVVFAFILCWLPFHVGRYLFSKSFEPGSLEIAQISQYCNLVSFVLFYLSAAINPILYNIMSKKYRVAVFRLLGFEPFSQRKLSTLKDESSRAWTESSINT
Experimental: (§1) In addition, through the activity test of the HKFY derivatives for similar receptors to GPR39, ghrelin receptor family (ghrelin receptor (GHSR), motilin receptor (MTLR), neurotensin receptor (NTSR1 & NTSR2), neuromedin U receptor (NMU1 & NMU2), TRH (thyrotropin releasing hormone) receptor (TRHR)), the selectivity and specificity for the GPR39 receptor were confirmed.
(§2) Specifically, the degree of activity between the intrinsic ligand and HKFY-34 for each receptor was analyzed using a luciferase assay system (FIG. 74).

[2] = target: T2, neurotensin receptor (NTSR1) (Homo sapiens, UniProt P30989); experiment: as above; assay type: cell-based; conditions: compared with intrinsic ligand, FIG. 74
T2 construct: expressed in transfected cells
T2 sequence (P30989 whole entry, species assumed): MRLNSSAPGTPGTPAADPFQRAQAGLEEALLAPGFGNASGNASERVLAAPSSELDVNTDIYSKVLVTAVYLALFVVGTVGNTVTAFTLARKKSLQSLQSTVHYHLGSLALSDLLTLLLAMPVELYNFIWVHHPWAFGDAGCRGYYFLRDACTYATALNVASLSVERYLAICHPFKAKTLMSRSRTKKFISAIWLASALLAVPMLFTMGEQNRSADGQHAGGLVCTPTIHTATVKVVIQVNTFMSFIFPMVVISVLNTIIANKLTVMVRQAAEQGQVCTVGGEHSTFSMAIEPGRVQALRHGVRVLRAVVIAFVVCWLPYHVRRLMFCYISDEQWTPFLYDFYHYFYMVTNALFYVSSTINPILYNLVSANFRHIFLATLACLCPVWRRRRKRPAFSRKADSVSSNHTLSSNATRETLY
Experimental: as §1, §2

[3] = target: T3, neurotensin receptor (NTSR2) (Homo sapiens, UniProt O95665); experiment: as above; assay type: cell-based; conditions: compared with intrinsic ligand, FIG. 74
T3 construct: expressed in transfected cells
T3 sequence (O95665 whole entry, species assumed): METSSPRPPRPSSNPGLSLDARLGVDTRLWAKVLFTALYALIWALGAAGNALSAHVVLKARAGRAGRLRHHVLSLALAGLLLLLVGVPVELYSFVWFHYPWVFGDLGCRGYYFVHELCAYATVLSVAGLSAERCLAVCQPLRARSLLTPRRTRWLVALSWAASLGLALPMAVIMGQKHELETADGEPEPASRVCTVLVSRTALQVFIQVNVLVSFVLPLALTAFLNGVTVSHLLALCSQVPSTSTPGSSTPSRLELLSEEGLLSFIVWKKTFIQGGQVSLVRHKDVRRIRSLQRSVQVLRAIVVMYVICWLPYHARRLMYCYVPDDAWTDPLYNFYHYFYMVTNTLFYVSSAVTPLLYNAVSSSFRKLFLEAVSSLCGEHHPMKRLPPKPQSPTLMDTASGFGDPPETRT
Experimental: as §1, §2

[4] = target: T4, neuromedin U receptor (NMU2) (Homo sapiens, UniProt Q9GZQ4); experiment: as above; assay type: cell-based; conditions: compared with intrinsic ligand, FIG. 74
T4 construct: expressed in transfected cells
T4 sequence (Q9GZQ4 whole entry, species assumed): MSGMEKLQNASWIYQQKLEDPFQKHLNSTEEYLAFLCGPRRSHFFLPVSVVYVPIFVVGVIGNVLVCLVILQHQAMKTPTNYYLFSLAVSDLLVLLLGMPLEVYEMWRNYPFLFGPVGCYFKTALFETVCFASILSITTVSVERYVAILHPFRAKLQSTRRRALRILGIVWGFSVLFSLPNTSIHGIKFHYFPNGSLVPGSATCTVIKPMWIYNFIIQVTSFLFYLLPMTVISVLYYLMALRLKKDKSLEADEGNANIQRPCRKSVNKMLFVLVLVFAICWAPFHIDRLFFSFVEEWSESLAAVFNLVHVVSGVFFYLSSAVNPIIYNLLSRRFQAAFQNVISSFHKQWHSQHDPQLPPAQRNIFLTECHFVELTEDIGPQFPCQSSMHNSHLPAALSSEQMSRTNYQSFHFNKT
Experimental: as §1, §2

[5] = target: T5, neuromedin U receptor (NMU1) (Homo sapiens, UniProt Q9HB89); experiment: as above; assay type: cell-based; conditions: compared with intrinsic ligand, FIG. 74
T5 construct: expressed in transfected cells
T5 sequence (Q9HB89 1-426): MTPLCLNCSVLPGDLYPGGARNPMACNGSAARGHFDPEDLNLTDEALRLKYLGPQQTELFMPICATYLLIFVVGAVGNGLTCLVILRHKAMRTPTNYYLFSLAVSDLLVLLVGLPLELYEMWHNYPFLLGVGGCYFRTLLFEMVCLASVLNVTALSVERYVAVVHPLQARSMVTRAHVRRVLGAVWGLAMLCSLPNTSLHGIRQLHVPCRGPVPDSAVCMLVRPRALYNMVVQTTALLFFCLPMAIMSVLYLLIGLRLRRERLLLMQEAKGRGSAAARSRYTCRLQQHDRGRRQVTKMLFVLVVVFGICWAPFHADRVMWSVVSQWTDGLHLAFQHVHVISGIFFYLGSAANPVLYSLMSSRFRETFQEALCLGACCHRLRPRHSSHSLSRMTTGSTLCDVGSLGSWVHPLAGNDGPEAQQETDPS
Experimental: as §1, §2

motilin receptor (MTLR) = target: T6, motilin receptor (MTLR) (Homo sapiens, UniProt O43193); experiment: as above; assay type: cell-based; conditions: compared with intrinsic ligand, FIG. 74
T6 construct: expressed in transfected cells
T6 sequence (O43193 whole entry, species assumed): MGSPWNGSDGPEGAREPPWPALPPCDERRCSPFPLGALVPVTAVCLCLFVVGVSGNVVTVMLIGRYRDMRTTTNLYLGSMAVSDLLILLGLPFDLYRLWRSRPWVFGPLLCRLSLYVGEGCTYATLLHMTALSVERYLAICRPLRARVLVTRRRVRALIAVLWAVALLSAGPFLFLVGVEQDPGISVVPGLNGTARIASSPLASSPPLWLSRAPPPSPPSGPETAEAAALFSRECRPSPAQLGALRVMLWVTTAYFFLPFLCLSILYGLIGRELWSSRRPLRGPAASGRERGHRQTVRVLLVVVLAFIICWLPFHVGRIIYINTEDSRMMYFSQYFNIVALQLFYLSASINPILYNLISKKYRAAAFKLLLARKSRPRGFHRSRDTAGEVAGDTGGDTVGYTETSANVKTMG
Experimental: as §1, §2

[6] = 0.1, 1 and 10 mg/kg intraperitoneal for 5 days, ELISA, vs negative control, FIG. 88
[7] = 0.1, 1 and 10 mg/kg intraperitoneal for 5 days, qPCR, FIG. 90
[8] = 0.1, 1 and 10 mg/kg intraperitoneal for 5 days, qPCR, vs negative control, FIG. 87

## CCCCCCCC(=O)NCCCC[C@H](NC(=O)[C@@H](N)Cc1cn(C(c2ccccc2)c2ccccc2)cn1)C(=O)N[C@H](Cc1ccc(C)cc1)C(=O)N[C@@H](Cc1ccc(O)cc1)C(=O)O [HKFY-34, ((R)-2-((S)-2-((S)-2-amino-3-(1-benzhydryl-1H-imidazol-4-yl)propanamido)-6-octanamidohexanamido)-3-(p-tolyl)propanoyl)-L-tyrosine]
AMPK; HT-29, different concentrations, vs vehicle, FIG. 79
  expression of p-AMPK protein: increased by HKFY-34 in a dose-dependent manner
AMPK; HT-29, pretreatment with STO-609 1 μM, vs HKFY-34 treatment, FIG. 80
  expression level of p-AMPK after pretreatment with AMPK inhibitor: decreased
[1]; [6]
  concentration of IL-1β in the blood: significantly decreased
  concentration of TNF-α in the blood: significantly decreased
[1]; [7]
  mRNA expression level of ZO-1 in colon tissue: significantly increased by HKFY-34 in a dose-dependent manner
  mRNA expression level of occludin in colon tissue: significantly increased by HKFY-34 in a dose-dependent manner
[1]; [8]
  mRNA expression level of IL-1β in colon tissue: significantly decreased
  mRNA expression level of IL-6 in colon tissue: significantly decreased
  mRNA expression level of IL-8 in colon tissue: significantly decreased
  mRNA expression level of TNF-α in colon tissue: significantly decreased
[1]; 0.1, 1 and 10 mg/kg intraperitoneal for 5 days, vs negative control (DSS alone), FIG. 84
  length contraction of the colon: reduced by HKFY-34 in a dose-dependent manner
[1]; 0.1, 1 and 10 mg/kg intraperitoneal for 5 days, vs negative control, FIG. 89
  degree of damage caused by inflammation of the colon tissue (H&E staining): alleviated
[1]; 0.1, 1 and 10 mg/kg intraperitoneal once a day for 5 days, 3% DSS, FIG. 83
  body weight loss: significantly inhibited by HKFY-34 in a dose-dependent manner
[1]; 0.1, 1 and 10 mg/kg intraperitoneal, score 0 to 3, FIG. 85
  stool consistency (diarrhea) score: alleviated in a dose-dependent manner
[1]; 0.1, 1 and 10 mg/kg intraperitoneal, score 0 to 3, FIG. 86
  blood in stool (fecal bleeding) score: alleviated in a dose-dependent manner
HT-29 cells; ELISA, FIG. 82
  secretion level of IL-1β: significantly decreased by HKFY-34 treatment in a dose-dependent manner
  secretion level of IL-6: significantly decreased by HKFY-34 treatment in a dose-dependent manner
  secretion level of IL-8: significantly decreased by HKFY-34 treatment in a dose-dependent manner
  secretion level of TNF-α: significantly decreased by HKFY-34 treatment in a dose-dependent manner
HT-29 cells; qPCR, FIG. 81
  mRNA expression level of IL-1β: significantly decreased by HKFY-34 treatment in a dose-dependent manner
  mRNA expression level of IL-6: significantly decreased by HKFY-34 treatment in a dose-dependent manner
  mRNA expression level of IL-8: significantly decreased by HKFY-34 treatment in a dose-dependent manner
  mRNA expression level of TNF-α: significantly decreased by HKFY-34 treatment in a dose-dependent manner
Ghrelin receptor (GHSR)
  activity for GHSR: very low
[2]
  activity for NTSR1: very low
[3]
  activity for NTSR2: very low
[4]
  activity for NMU2: very low
[5]
  activity for NMU1: very low
Motilin receptor (MTLR)
  activity for MTLR: very low
